The text below walks through data of ChEMBL document CHEMBL5543162, “Discovery of a Novel Orally Bioavailable FLT3-PROTAC Degrader for Efficient Treatment of Acute Myeloid Leukemia and Overcoming Resistance of FLT3 Inhibitors” (J Med Chem, 2024).

Series [1] relates to Protein cereblon/Receptor-type tyrosine-protein kinase FLT3 (Homo sapiens), P36888+Q96SW2 [UNDEFINED MUTATION]. The experiment in a line: PROTAC activity at CRBN/FLT3-ITD mutant in human MOLM-13 cells assessed as decrease in STAT5 level at 20 nM by Western blot analysis. It counts as cell-based. Conditions: time <= 12.0 hrs, TDE = time-dependent effect. For orientation: A western blot detects proteins with antibodies after separation by electrophoresis.

Series [2] can be described thus: Toxicity in nude mouse xenografted with human MV4-11 cells assessed as change in body weight at 120 mg/kg, po administered daily for 15 days. It counts as organism-based. Conditions: in vivo, 360 h, time 15 day. For orientation: Xenograft models place foreign cells or tissue in a host animal.
Series [3] deals with Protein cereblon/Receptor-type tyrosine-protein kinase FLT3 (Homo sapiens), P36888+Q96SW2 [UNDEFINED MUTATION]. The experiment in a line: PROTAC activity at CRBN/FLT3-ITD mutant in human MOLM-13 cells assessed as protein degradation at 20 nM by Western blot analysis. It counts as cell-based. Conditions: time <= 12.0 hrs, TDE = time-dependent effect.
A short description of series [4]: Stability in Sprague-Dawley rat intestinal fluid at 50 ug/ml incubated upto 8 hrs by LC-MS/MS analysis. It counts as ADME, tissue-based, Intestine. Conditions: simulated gi fluid, at 50 µg/mL.

SMILES strings stand for the structures.

Sequence of Protein cereblon/Receptor-type tyrosine-protein kinase FLT3 (Homo sapiens), P36888+Q96SW2 [UNDEFINED MUTATION] (P36888 whole entry, looked up, stated change not applied): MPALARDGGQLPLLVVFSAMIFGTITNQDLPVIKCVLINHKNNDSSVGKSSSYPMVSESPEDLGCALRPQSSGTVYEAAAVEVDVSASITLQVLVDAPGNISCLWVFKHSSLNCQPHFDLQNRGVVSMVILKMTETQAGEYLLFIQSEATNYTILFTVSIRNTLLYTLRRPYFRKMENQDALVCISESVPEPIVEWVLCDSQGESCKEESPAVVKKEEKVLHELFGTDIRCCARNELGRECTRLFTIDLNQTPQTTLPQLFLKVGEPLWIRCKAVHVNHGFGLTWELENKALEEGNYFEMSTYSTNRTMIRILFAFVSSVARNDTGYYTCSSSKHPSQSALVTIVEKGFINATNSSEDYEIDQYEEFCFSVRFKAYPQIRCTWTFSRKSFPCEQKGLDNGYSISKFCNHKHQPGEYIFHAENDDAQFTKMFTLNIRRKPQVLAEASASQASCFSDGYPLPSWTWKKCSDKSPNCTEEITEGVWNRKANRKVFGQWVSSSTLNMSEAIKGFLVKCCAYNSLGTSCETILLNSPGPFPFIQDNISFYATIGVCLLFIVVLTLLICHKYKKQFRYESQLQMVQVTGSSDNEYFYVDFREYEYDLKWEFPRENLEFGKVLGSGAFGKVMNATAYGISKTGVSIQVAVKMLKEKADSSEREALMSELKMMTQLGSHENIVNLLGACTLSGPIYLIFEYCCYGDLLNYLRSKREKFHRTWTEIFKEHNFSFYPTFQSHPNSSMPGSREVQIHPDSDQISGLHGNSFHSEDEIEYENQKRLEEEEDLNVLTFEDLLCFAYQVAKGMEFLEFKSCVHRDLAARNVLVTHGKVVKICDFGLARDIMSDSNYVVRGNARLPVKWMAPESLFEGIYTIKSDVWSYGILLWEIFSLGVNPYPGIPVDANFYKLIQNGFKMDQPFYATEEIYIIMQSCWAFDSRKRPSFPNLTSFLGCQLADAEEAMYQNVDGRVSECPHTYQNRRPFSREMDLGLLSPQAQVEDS
Sequence of Protein cereblon/Receptor-type tyrosine-protein kinase FLT3 (Homo sapiens), P36888+Q96SW2 [UNDEFINED MUTATION] (Q96SW2 whole entry, looked up, stated change not applied): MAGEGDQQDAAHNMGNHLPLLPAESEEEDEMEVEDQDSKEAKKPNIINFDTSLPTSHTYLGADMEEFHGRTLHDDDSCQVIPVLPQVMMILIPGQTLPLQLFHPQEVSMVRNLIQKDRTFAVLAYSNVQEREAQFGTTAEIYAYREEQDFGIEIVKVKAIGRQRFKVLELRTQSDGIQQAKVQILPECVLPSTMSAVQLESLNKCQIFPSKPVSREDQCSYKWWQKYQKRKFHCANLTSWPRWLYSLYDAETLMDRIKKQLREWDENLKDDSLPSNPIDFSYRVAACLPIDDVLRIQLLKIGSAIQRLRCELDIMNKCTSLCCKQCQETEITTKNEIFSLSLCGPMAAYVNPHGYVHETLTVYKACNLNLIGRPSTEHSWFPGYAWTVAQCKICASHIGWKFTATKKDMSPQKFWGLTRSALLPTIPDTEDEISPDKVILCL

For `Cc1c(NC(=O)CN2CCN(CC3CCN(c4ccc5c(c4)C(=O)N(C4CCC(=O)NC4=O)C5=O)CC3)CC2)c[nH]c1/C=C1\C(=O)Nc2ccc(F)cc21` (centres undefined), the results for the Activity result in series [1], in series [2] and in series [3] were “Tde”, “Non-Toxic” and “Tde”, respectively. In series [4], the Stability entry is “Stable”.
